Assay results: US20230349907A1, “BIOPROBES FOR LYSYL OXIDASES AND USES THEREOF” (Pharmaxis Ltd., priority 2020, published 2023)
Where a name gives a salt, the structure may show the parent alone.

Columns and labels:
Bovine LOX = Bovine LOX (Bos taurus (Bovine), UniProt P33072); test: LOX inhibition, peroxidase-coupled Amplex Red assay; type: biochemical; conditions: 30 min preincubation at 37° C.
From the text: (§1) Method to Determine the Ability of Compounds of the Invention to Inhibit LOX and LOXL1-4 from Different Sources […] S., Trackman P. C. and Kagan H. M., Reaction of aortic lysyl oxidase with beta-aminoproprionitrile. J Biol Chem 1983; 258: 4331-4338). There are five LOX family members; these are LOX, LOXL1, LOXL2, LOXL3 and LOXL4. LOX and LOXL family members can be acquired as recombinant active proteins from commercial sources, or extracted from animal tissues like bovine aorta, tendons, pig skin; or prepared from cell cultures. The inhibitory effects of the compounds of the present invention were tested against the given LOX-LOXL preparation using a high-throughput coupled colorimetric method (Holt A. and Palcic M., A peroxidase-coupled continuous absorbance plate-reader assay for flavin monoamine oxidases, copper-containing amine oxidases and related enzymes. Nat. Protoc. 2006; 1: 2498-2505). The assay was developed using either 384 or 96 well format. […] Test compounds were dissolved in DMSO and tested in a Concentration Response Curve (CRC) with 11 data points, typically in the micromolar or nanomolar range after incubation with the enzyme for 30 min at 37° C. 25 μL of a reaction mixture containing twice the KM concentration of putrescine (Sigma Aldrich, e.g. 20 mM for LOX, or 10 mM for LOXL2 and LOXL3), 120 μM Amplex Red (Sigma Aldrich) and 1.5 U/mL horseradish peroxidase (Sigma Aldrich) prepared in 1.2 M urea, 50 mM sodium borate buffer (pH 8.2) were then added to the corresponding wells. The above volumes were doubled in the case of 96 well plates. The fluorescence (RFU) was read every 2.5 m n for 30 m u […], excitation 565 nm and emission 590 nm (Optima; BMG labtech). The slope of the kinetics for each well was calculated using MARS data analysis software (BMG labtech) and this value was used to deduce the IC50 value (Dotmatics).

rhLOXL2 = rhLOXL2 (Homo sapiens (Human), UniProt Q9Y4K0); test: LOXL2 inhibition, peroxidase-coupled Amplex Red assay; type: biochemical; conditions: 30 min preincubation at 37° C.
From the text: as §1

Chain of rhLOXL2 (Q9Y4K0 26-774): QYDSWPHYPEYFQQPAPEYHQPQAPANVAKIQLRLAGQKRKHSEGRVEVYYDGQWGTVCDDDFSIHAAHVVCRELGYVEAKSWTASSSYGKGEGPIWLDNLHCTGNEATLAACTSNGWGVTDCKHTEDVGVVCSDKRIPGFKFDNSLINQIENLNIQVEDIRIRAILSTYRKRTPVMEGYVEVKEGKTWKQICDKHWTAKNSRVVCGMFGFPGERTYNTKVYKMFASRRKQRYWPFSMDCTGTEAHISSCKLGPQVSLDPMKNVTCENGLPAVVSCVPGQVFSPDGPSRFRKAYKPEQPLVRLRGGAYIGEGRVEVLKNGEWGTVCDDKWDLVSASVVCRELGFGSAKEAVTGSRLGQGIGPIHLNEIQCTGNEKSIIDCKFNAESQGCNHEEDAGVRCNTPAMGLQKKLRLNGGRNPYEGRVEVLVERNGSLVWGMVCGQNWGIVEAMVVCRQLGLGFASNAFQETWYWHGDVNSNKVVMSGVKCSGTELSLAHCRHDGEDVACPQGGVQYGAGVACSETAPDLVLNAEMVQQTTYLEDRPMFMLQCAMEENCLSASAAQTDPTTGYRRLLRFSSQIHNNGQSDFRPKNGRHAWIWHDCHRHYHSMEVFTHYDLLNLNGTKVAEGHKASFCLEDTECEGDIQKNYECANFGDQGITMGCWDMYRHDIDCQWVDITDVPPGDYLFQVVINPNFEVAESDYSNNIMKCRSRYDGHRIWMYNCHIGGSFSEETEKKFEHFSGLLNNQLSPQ
Chain of Bovine LOX (P33072 170-418): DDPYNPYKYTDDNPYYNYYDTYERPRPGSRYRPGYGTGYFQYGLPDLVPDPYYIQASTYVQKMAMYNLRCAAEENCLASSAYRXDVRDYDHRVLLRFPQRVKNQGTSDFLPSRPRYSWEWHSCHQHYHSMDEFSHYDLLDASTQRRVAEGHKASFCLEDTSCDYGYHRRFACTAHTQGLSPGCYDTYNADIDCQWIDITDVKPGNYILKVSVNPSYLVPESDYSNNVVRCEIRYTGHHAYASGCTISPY

**Q.** What does the source list for `Cc1c(-c2cccc(S(=O)(=O)N(C)C)c2)c2cc(C(=O)NCCCCCNC(=O)CCCC[C@@H]3SC[C@@H]4NC(=O)N[C@@H]43)ccc2n1C/C(F)=C/CN` [Compound 1-2, 1-((Z)-4-amino-2-fluorobut-2-en-1-yl)-3-(3-(N,N-dimethylsulfamoyl)phenyl)-2-methyl-N-(5-(5-((3aS,4S,6aR)-2-oxohexahydro-1H-thieno[3,4-d]imidazol-4-yl)pentanamido)pentyl)-1H-indole-5-carboxamide]?
**A.** IC50 (Bovine LOX): > 300 nM; IC50 (rhLOXL2): < 300 nM

**Q.** `Cc1c(-c2cccc(S(=O)(=O)N(C)C)c2)c2cc(C(=O)Nc3ccc4c(c3)n(Cc3cn(CCOCCOCCOCCNC(=O)CCCC[C@@H]5SC[C@@H]6NC(=O)N[C@@H]65)nn3)c(=O)n4Cc3cn(CCOCCOCCOCCNC(=O)CCCC[C@@H]4SC[C@@H]5NC(=O)N[C@@H]54)nn3)ccc2n1C/C(F)=C/CN` [Compound 1-3, hydrochloride] was tested. Which IC50 (Bovine LOX) did it give?
**A.** Its IC50 is > 300 nM.

**Q.** And the IC50 (rhLOXL2)?
**A.** The IC50 was < 300 nM.

**Q.** Which results are given for `Cc1c(-c2cccc(S(=O)(=O)N(C)C)c2)c2cc(C(=O)Nc3ccc4c(c3)n(CCn3cc(CCNC(=O)CCCC[C@@H]5SC[C@@H]6NC(=O)N[C@@H]65)nn3)c(=O)n4CCn3cc(CCNC(=O)CCCC[C@@H]4SC[C@@H]5NC(=O)N[C@@H]54)nn3)ccc2n1C/C(F)=C/CN` [Compound 1-4, N,N′-((((5-(1-((Z)-4-amino-2-fluorobut-2-en-1-yl)-3-(3-(N,N-dimethylsulfamoyl)phenyl)-2-methyl-1H-indole-5-carboxamido)-2-oxo-1H-benzo[d]imidazole-1,3(2H)-diyl)bis(ethane-2,1-diyl))bis(1H-1,2,3-triazole-1,4-diyl))bis(ethane-2,1-diyl))bis(5-((3aS,4S,6aR)-2-oxohexahydro-1H-thieno[3,4-d]imidazol-4-yl)pentanamide) hydrochloride]?
**A.** IC50 (Bovine LOX): > 300 nM; IC50 (rhLOXL2): < 300 nM

**Q.** Which results are given for `Cc1c(-c2cccc(S(=O)(=O)N(C)C)c2)c2cc(C(=O)Nc3cc(C(=O)NCCCCCNC(=O)CCCC[C@@H]4SC[C@@H]5NC(=O)N[C@@H]54)cc(C(=O)NCCCCCNC(=O)CCCC[C@@H]4SC[C@@H]5NC(=O)N[C@@H]54)c3)ccc2n1C/C(F)=C/CN` [Compound 1-5, 5-(1-((Z)-4-amino-2-fluorobut-2-en-1-yl)-3-(3-(N,N-dimethylsulfamoyl)phenyl)-2-methyl-1H-indole-5-carboxamido)-N^1,N^3-bis(5-(5-((3aS,4S,6aR)-2-oxohexahydro-1H-thieno[3,4-d]imidazol-4-yl)pentanamido)pentyl)isophthalamide hydrochloride]?
**A.** IC50 (Bovine LOX): > 300 nM; IC50 (rhLOXL2): < 300 nM

**Q.** Which IC50 (Bovine LOX) does the source give for `Cc1c(-c2cccc(S(=O)(=O)N(C)C)c2)c2cc(-c3cn(-c4cc(C(=O)NCCCCCNC(=O)CCCC[C@@H]5SC[C@@H]6NC(=O)N[C@@H]65)cc(C(=O)NCCCCCNC(=O)CCCC[C@@H]5SC[C@@H]6NC(=O)N[C@@H]65)c4)nn3)ccc2n1C/C(F)=C/CN` [Compound 1-6, 5-(4-(1-((Z)-4-amino-2-fluorobut-2-en-1-yl)-3-(3-(N,N-dimethylsulfamoyl)phenyl)-2-methyl-1H-indol-5-yl)-1H-1,2,3-triazol-1-yl)-N^1,N^3-bis(5-(5-((3aS,4S,6aR)-2-oxohexahydro-1H-thieno[3,4-d]imidazol-4-yl)pentanamido)pentyl)isophthalamide hydrochloride] here?
**A.** Its IC50 is > 300 nM.

**Q.** And the IC50 (rhLOXL2)?
**A.** Its IC50 is < 300 nM.

**Q.** How did the IC50 (Bovine LOX) turn out when `NC/C=C(\F)CS(=O)(=O)c1ccc(C(=O)NCc2cn(CCOCCOCCOCCNC(=O)CCCC[C@@H]3SC[C@@H]4NC(=O)N[C@@H]43)nn2)cc1` [Compound 1-7, 4-(((Z)-4-amino-2-fluorobut-2-en-1-yl)sulfonyl)-N-((1-(13-oxo-17-((3aS,4S,6aR)-2-oxohexahydro-1H-thieno[3,4-d]imidazol-4-yl)-3,6,9-trioxa-12-azaheptadecyl)-1H-1,2,3-triazol-4-yl)methyl)benzamide hydrochloride] was run?
**A.** Its IC50 is > 300 nM.

**Q.** And the IC50 (rhLOXL2)?
**A.** Its IC50 is > 300 nM.

**Q.** Which results are given for `NC/C=C(\F)CS(=O)(=O)c1ccccc1C(=O)NCCCCCNC(=O)CCCC[C@@H]1SC[C@@H]2NC(=O)N[C@@H]21` [Compound 1-8, 2-(((Z)-4-amino-2-fluorobut-2-en-1-yl)sulfonyl)-N-(5-(5-((3aS,4S,6aR)-2-oxohexahydro-1H-thieno[3,4-d]imidazol-4-yl)pentanamido)pentyl)benzamide hydrochloride]?
**A.** IC50 (Bovine LOX): > 300 nM; IC50 (rhLOXL2): > 300 nM

**Q.** How did the IC50 (Bovine LOX) turn out when `NC/C=C(\F)CS(=O)(=O)c1cccc(C(=O)NCCCCCNC(=O)CCCC[C@@H]2SC[C@@H]3NC(=O)N[C@@H]32)c1` [Compound 1-9, 3-(((Z)-4-amino-2-fluorobut-2-en-1-yl)sulfonyl)-N-(5-(5-((3aS,4S,6aR)-2-oxohexahydro-1H-thieno[3,4-d]imidazol-4-yl)pentanamido)pentyl)benzamide hydrochloride] was run?
**A.** The IC50 was > 300 nM.

**Q.** And the IC50 (rhLOXL2)?
**A.** Its IC50 is > 300 nM.

**Q.** Which IC50 (Bovine LOX) does the source give for `NC/C=C(\F)CS(=O)(=O)c1cccc(C(=O)Nc2cc(C(=O)N3CCN(C(=O)CCCC[C@@H]4SC[C@@H]5NC(=O)N[C@@H]54)CC3)cc(C(=O)N3CCN(C(=O)CCCC[C@@H]4SC[C@@H]5NC(=O)N[C@@H]54)CC3)c2)c1` [Compound 1-10, 3-(((Z)-4-amino-2-fluorobut-2-en-1-yl)sulfonyl)-N-(3,5-bis(4-(5-((3aS,4S,6aR)-2-oxohexahydro-1H-thieno[3,4-d]imidazol-4-yl)pentanoyl)piperazine-1-carbonyl)phenyl)benzamide hydrochloride] here?
**A.** Its IC50 is > 300 nM.

**Q.** What about the IC50 (rhLOXL2) of the same compound?
**A.** The IC50 was > 300 nM.

**Q.** Which IC50 (Bovine LOX) does the source give for `NC/C=C(\F)CS(=O)(=O)c1cccc(OCCCc2cn(CCCCC[C@@H]3SC[C@@H]4NC(=O)N[C@@H]43)nn2)c1` [Compound 1-11, (3aS,4S,6aR)-4-(5-(4-(3-(3-(((Z)-4-amino-2-fluorobut-2-en-1-yl)sulfonyl)phenoxy)propyl)-1H-1,2,3-triazol-1-yl)pentyl)tetrahydro-1H-thieno[3,4-d]imidazol-2(3H)-one hydrochloride] here?
**A.** Its IC50 is > 300 nM.

**Q.** What about the IC50 (rhLOXL2) of the same compound?
**A.** The IC50 was < 300 nM.

**Q.** With `NC/C=C(\F)CS(=O)(=O)c1cccc(N(CCCc2cn(CCCCC[C@@H]3SC[C@@H]4NC(=O)N[C@@H]43)nn2)CCCc2cn(CCCCC[C@@H]3SC[C@@H]4NC(=O)N[C@@H]43)nn2)c1` [Compound 1-13, (3aS,3a'S,4S,4'S,6aR,6a′R)-4,4′-(((((3-(((Z)-4-amino-2-fluorobut-2-en-1-yl)sulfonyl)phenyl)azanediyl)bis(propane-3,1-diyl))bis(1H-1,2,3-triazole-4,1-diyl))bis(pentane-5,1-diyl))bis(tetrahydro-1H-thieno[3,4-d]imidazol-2(3H)-one) hydrochloride] as the compound, how does the IC50 (Bovine LOX) read?
**A.** Its IC50 is > 300 nM.

**Q.** And the IC50 (rhLOXL2)?
**A.** Its IC50 is > 300 nM.

**Q.** With `NC/C=C(\F)CS(=O)(=O)c1cccc(NCCCc2cn(CCCCC[C@@H]3SC[C@@H]4NC(=O)N[C@@H]43)nn2)c1` [Compound 1-14, hydrochloride] as the compound, how does the IC50 (Bovine LOX) read?
**A.** The IC50 was > 300 nM.

**Q.** What about the IC50 (rhLOXL2) of the same compound?
**A.** Its IC50 is > 300 nM.

**Q.** Which results are given for `CN(C)S(=O)(=O)c1ccc(C(OCc2ccc(-n3cc(CNC(=O)CCOCCOCCOCCOCCNC(=O)CCCC[C@@H]4SC[C@@H]5NC(=O)N[C@@H]54)nn3)cc2)c2cn(C/C(F)=C/CN)nn2)cc1` (stereo partly drawn) [Compound 1-16, N-((1-(4-(((1-((Z)-4-amino-2-fluorobut-2-en-1-yl)-1H-1,2,3-triazol-4-yl)(4-(N,N-dimethylsulfamoyl)phenyl)methoxy)methyl)phenyl)-1H-1,2,3-triazol-4-yl)methyl)-1-(5-((3aS,4S,6aR)-2-oxohexahydro-1H-thieno[3,4-d]imidazol-4-yl)pentanamido)-3,6,9,12-tetraoxapentadecan-15-amide hydrochloride]?
**A.** IC50 (Bovine LOX): > 300 nM; IC50 (rhLOXL2): < 300 nM
